In one data set the target is cytochrome bc1 (Mycobacterium tuberculosis, UniProt P9WP37). The note with it: by inhibiting cytochrome bc1 activity; Pethe et al., Nature Medicine 2013; cited from earlier work.
Data set [1] in a line: Solubility of Q203 in aqueous solutions (background statement). It is filed as physicochemical.

Here are results for 1 compound from patent publication US12653787B2, “Pharmaceutical oral dosage form of Q203” (QURIENT CO., LTD., priority 2019, dated 2026).

cytochrome bc1, sequence (P9WP37 whole entry, looked up): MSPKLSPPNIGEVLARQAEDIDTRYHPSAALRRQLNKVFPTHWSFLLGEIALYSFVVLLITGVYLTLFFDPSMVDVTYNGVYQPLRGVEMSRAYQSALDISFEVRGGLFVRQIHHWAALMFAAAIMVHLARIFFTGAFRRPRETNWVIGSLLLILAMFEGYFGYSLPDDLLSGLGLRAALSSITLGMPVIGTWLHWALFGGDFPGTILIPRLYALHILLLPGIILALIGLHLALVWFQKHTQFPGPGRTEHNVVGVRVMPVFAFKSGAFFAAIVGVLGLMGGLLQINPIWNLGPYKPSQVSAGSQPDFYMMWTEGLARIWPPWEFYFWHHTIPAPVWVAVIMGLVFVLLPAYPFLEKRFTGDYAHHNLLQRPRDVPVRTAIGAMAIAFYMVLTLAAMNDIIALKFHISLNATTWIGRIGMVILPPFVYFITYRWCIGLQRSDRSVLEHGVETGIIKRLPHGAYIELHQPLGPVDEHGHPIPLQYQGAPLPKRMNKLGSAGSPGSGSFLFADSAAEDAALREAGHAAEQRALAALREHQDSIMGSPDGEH

For `CCc1nc2ccc(Cl)cn2c1C(=O)NCc1ccc(N2CCC(c3ccc(OC(F)(F)F)cc3)CC2)cc1` [Example Q203, 6-chloro-2-ethyl-N-(4-(4-(4-(trifluoromethoxy)phenyl)piperidine-1-yl)benzyl)imidazo[1,2-a]pyridine-3-carboxamide], at cytochrome bc1, the activity against tuberculosis result is recorded as “active against tuberculosis”. The “solubility in aqueous solutions” value in data set [1] is given as “rather low solubility”.
